According to patent US11577092B2, “Phosphor-containing drug activator activatable by a monte carlo derived X-ray exposure, system containing the activator, and methods for use” (IMMUNOLIGHT, LLC, priority 2016, dated 2023):

Assays:
4T1-HER2 cells [1] = assay: Methylene blue staining for cell viability post treatment; format: cell-based, murine; conditions: individual components; 1 Gy of 80 kVp x-rays; phosphor 25, 50, 100 μg/mL; UVADEX 10 uM 8-MOP
Text: Methylene blue staining of viable 4T1-HER2 cells confirms that the device works well according to the target parameters identified above. A plate having six (6) wells is subjected to treatment. FIG. 11 is a photographic depiction showing of Methylene Blue stain for cell viability post treatment with X-ray, phosphors and UVADEX. One well (#1) is the control. One well (#2) has phosphor coated with EC and DLC (H100). One well (#3) has phosphor coated with EC (but no DLC). One well (#4) has drug UVADEX but no phosphors. One well (#5) has drug UVADEX and phosphors coated with EC and DLC. One well (#6) has drug UVADEX and phosphors coated with EC and no DLC.
All wells were exposed to the optimized x-ray initiation energy noted above. […] One added benefit to a dual coating is redundancy in safety of the treatment.
(§1) Other assays were used to provide independent complimentary information on cell viability, e.g. Methylene blue staining and ATP-induced Luminescence imaging (Cell-Titer-Glo® Luminescence Cell Viability Assay). The luminescence imaging permitted investigation of the cytotoxicity of psoralen activated directly with a UV lamp, and in the absence of phosphors and x-ray radiation.
FIGS. 13A-13D illustrates the efficacy of treatment in-vitro in 4T1-HER2 cells, utilizing a regimen of 1/10-diluted UVADEX (with equivalent of 10 uM 8-MOP), 50 μg/mL phosphor 1 Gy of 80 kVp x-rays. […]

4T1-HER2 cells [2] = assay: Cell viability by Guava flow cytometry (forward scattering) 48 hours after treatment; format: cell-based, murine; conditions: single component, 1 Gy of 80 kVp; UVADEX p=0.97, phosphors p=0.034
Method: (§2) In-vitro studies were conducted on plated cells following standard procedures. Cells were maintained in RPMI-1640 supplemented with 10% fetal bovine serum and L-glutamine from GIBCO (Grand Island, N.Y.) growing in a humidified atmosphere of 5% CO2. After incubation, cells were trypsinized and plated evenly onto twelve 12-well plates for 24 hours. […] Each plate had 12 wells with three wells for each of the four treatment arms. The plates were then irradiated with x-rays by placing the plate at a known distance from the x-ray source (50 cm). After irradiation, the cells were incubated on the plate for 48 hours prior to performing flow cytometry. […]
(§3) Two primary flow cytometry analyses were used, both determined at 48 hours after treatment. […] The first analysis evaluated was metabolic cell viability (herein referred to as cell viability) calculated from the number of whole cells per well as determined using forward scattering (FSC). […]
(§4) FIGS. 13A-13D illustrates the efficacy of treatment in-vitro in 4T1-HER2 cells, utilizing a regimen of 1/10-diluted UVADEX (with equivalent of 10 uM 8-MOP), 50 μg/mL phosphor 1 Gy of 80 kVp x-rays. […] In FIG. 13A, cell viability after treatment (10 μM 8-MOP equivalent dilution of UVADEX, 50 μg/mL phosphor, 1 Gy of 80 kVp radiation) as determined by Guava flow cytome cytometry is depicted. […]

4T1-HER2 cells [3] = assay: Annexin V positivity by flow cytometry 48 hours after treatment; format: cell-based, murine; conditions: 10 μM 8-MOP equivalent UVADEX, 50 μg/mL phosphor, 1 Gy of 80 kVp; UVADEX alone with or without x-ray
Method: as §2, §3, §4

[4] = test system: CT2A (murine malignant glioma), 4T1 and KP-B (sarcoma) cell lines; assay: Cell-Titer-Glo Luminescence Cell Viability Assay on three cell lines; format: cell-based; conditions: psoralen 40 μM; UV light 0, 0.25, 0.5, 1.0 J/cm^2; N=4
Text: Guava Annexin V flow cell cytometry was used to quantify cytotoxicity in 3 murine tumor cell lines (mammary −4T1; 4T1-HER2, 4T1 stably transfected with the human HER2 oncogene; glioma-CT2A; sarcoma KP-B). The mouse breast cancer cell line 4T1 was purchased from ATCC. 4T1-HER2 was provided by Dr. Michael Kershaw (Cancer Immunology Program, Peter MacCallum Cancer Centre, Victoria, Australia) and maintained in DMEM with penicillin/streptomycin and 10% FBS The Sarcoma KP-B cell lines were derived from primary tumors LSL-Kras; p53 Flox/Flox mice (45).
as §1
FIG. 14B presents data on CT2A malignant glioma cells, for a range of treatment parameters including variable x-ray dose (0, 0.67 and 1 Gy), phosphor concentration (50 or 100 μg) and psoralen concentration (8-MOP) at 10, 20 and 40 μM respectively. […] N=4 for each cell line at each UV light condition (0, 0.25, 0.5, 1.0 J/cm^2). The psoralen concentration was 40 μM. […]

Row | Compound | effect in methyl blue staining (4T1-HER2 cells [1]) | reduction in cell viability when radiation was added (4T1-HER2 cells [2]) | increase in Annexin V staining (apoptotic activity) (4T1-HER2 cells [3]) | viable cells after UV light activated psoralen [4]
1 | COc1c2occc2cc2ccc(=O)oc12 [UVADEX, 8-methoxypsoralen] | little effect | no significant effect | negligible apoptotic activity | –
2 | O=c1ccc2cc3ccoc3cc2o1 [psoralen] | – | – | – | reduce viable cells in 3 cell lines
